Measured values from US12304910B2, “Janus kinase (JAK) family inhibitor, preparation of same, and applications thereof” (JIANGSU VCARE PHARMATECH CO., LTD., priority 2019, dated 2025).

How the values were obtained:
[1] = biological target: JAK1 (Homo sapiens, UniProt P23458); assay: Kinase activity test (γ33P-ATP isotopic method), JAK1; format: biochemical; conditions: for IC50: 33P-ATP 10 μM, 2 h reaction; for activity in inhibiting the JAK1 kinase compared with Tofacitinib (in words): conclusion from Table 1
Sequence of JAK1 (P23458 whole entry): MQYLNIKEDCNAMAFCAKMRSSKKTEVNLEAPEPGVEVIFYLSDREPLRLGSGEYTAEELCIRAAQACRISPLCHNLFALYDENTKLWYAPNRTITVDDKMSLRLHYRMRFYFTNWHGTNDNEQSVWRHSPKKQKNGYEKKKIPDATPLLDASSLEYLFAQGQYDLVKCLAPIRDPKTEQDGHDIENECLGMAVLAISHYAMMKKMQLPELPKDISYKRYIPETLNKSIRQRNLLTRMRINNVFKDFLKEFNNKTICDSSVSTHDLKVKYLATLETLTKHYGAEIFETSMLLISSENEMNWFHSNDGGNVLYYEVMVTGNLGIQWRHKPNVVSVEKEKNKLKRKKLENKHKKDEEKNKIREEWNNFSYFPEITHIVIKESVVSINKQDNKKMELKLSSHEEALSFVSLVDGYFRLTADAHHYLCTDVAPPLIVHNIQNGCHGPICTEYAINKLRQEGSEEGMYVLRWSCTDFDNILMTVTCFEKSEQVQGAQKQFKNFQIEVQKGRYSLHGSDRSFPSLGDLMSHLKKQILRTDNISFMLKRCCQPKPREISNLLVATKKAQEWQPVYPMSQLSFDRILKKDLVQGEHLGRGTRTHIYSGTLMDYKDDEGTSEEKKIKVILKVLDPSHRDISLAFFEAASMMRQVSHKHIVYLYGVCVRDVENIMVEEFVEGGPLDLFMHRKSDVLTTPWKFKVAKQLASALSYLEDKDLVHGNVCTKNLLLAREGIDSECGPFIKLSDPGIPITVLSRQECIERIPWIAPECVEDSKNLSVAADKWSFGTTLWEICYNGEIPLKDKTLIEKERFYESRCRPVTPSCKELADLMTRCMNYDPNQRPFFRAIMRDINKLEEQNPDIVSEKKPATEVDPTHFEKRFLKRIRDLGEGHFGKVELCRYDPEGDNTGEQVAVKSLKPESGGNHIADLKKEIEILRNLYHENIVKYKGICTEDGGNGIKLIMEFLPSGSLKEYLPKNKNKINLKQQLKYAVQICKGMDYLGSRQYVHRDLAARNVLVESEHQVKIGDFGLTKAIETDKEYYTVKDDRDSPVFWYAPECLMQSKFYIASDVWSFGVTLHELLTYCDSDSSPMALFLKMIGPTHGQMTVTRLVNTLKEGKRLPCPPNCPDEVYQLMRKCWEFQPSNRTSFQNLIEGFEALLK
Experimental: (§1) This experiment adopted a γ^33p-ATP isotopic test method to test the inhibitory effect of a compound on kinases JAK1, JAK2, JAK3 and TYK2, and obtained a half inhibitory concentration IC50 of the compound for inhibiting activity of the kinase.
(§2) 20 mM 4-hydroxyethylpiperazine ethanesulfonic acid buffer (Hepes, pH 7.5), 10 mM magnesium chloride (MgCl2), 1 mM ethylene glycol diethyl ether diamine tetraacetic acid (EGTA), 0.02% dodecyl polyethylene glycol ether (Brij35), 0.02 mg/ml bovine serum albumin (BSA), 0.1 mM sodium vanadate (Na3VO4), 2 mM dithiothreitol (DTT), and 1% dimethylsulfoxide (DMSO).
(§3) A compound is dissolved with 100% DMSO to a specific concentration, and then subjected to gradient dilution by an automatic sampling device to obtain the samples to be tested with different concentrations (DMSO solutions).
(§4) 3.1 diluting the reaction substrate with the basic reaction buffer;
(§5) 3.2 adding the kinase into the substrate solution, and gently mixing well;
(§6) 3.3 adding, by the automatic sampling system, the 100% DMSO diluted compounds with different concentrations into the kinase solution, and incubating for 20 min at room temperature; and
(§7) 3.4 adding ^33p-ATP (10 μM, 10 μCi/μl) at room temperature to initiate the kinase reaction for a duration of 2 h.
(§8) The unreacted ATP and the reaction-generated […] in the reaction were removed by an ion exchange filtering system, and then the amount of radioactivity of ^33p isotope in the substrate was detected.
(§9) According to the amount of radioactivity, the kinase activities in the systems added with the inhibitors of different concentrations were calculated, to obtain the inhibitors' effects of the compounds of different concentrations on the kinase activity; and fitting was performed with graphpad prism to obtain the inhibitory IC50 values of the compounds.

[2] = biological target: JAK2 (Homo sapiens, UniProt O60674); assay: Kinase activity test (γ33P-ATP isotopic method), JAK2; format: biochemical; conditions: 33P-ATP 10 μM, 2 h reaction
Sequence of JAK2 (O60674 whole entry): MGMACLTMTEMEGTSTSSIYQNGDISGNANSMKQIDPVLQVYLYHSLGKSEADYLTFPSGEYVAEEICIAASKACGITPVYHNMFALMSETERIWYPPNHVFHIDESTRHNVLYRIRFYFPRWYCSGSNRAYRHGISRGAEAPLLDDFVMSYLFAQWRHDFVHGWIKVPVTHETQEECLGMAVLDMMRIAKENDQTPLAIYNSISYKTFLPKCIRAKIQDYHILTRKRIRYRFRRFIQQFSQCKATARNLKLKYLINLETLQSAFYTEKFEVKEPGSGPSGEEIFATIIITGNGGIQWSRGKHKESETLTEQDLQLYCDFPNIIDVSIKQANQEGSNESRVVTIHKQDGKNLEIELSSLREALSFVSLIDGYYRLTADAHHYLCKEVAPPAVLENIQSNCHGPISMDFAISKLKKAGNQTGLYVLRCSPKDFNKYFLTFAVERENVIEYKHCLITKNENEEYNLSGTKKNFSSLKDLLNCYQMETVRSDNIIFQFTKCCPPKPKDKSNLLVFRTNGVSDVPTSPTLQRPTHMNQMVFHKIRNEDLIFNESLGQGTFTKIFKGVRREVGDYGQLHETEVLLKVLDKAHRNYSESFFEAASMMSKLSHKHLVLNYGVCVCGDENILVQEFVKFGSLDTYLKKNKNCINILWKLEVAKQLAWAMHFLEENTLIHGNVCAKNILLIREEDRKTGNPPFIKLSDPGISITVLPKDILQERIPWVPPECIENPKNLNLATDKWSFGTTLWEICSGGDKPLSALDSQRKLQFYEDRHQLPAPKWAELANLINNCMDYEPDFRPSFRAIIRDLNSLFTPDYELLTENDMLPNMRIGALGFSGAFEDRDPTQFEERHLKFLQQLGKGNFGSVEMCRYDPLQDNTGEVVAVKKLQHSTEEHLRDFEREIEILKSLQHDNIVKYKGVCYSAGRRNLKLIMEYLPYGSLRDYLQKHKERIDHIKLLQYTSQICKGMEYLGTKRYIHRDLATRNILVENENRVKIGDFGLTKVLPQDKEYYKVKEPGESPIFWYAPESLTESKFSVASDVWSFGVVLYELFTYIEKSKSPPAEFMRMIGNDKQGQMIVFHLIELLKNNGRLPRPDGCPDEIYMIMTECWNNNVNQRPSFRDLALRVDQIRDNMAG
Experimental: as §1, §2, §3, §4, §5, §6, §7, §8, §9

[3] = biological target: T1, JAK3 (Homo sapiens, UniProt P52333); assay: Kinase activity test (γ33P-ATP isotopic method), JAK3; format: biochemical; conditions: 33P-ATP 10 μM, 2 h reaction
T1 sequence (P52333 1-1124): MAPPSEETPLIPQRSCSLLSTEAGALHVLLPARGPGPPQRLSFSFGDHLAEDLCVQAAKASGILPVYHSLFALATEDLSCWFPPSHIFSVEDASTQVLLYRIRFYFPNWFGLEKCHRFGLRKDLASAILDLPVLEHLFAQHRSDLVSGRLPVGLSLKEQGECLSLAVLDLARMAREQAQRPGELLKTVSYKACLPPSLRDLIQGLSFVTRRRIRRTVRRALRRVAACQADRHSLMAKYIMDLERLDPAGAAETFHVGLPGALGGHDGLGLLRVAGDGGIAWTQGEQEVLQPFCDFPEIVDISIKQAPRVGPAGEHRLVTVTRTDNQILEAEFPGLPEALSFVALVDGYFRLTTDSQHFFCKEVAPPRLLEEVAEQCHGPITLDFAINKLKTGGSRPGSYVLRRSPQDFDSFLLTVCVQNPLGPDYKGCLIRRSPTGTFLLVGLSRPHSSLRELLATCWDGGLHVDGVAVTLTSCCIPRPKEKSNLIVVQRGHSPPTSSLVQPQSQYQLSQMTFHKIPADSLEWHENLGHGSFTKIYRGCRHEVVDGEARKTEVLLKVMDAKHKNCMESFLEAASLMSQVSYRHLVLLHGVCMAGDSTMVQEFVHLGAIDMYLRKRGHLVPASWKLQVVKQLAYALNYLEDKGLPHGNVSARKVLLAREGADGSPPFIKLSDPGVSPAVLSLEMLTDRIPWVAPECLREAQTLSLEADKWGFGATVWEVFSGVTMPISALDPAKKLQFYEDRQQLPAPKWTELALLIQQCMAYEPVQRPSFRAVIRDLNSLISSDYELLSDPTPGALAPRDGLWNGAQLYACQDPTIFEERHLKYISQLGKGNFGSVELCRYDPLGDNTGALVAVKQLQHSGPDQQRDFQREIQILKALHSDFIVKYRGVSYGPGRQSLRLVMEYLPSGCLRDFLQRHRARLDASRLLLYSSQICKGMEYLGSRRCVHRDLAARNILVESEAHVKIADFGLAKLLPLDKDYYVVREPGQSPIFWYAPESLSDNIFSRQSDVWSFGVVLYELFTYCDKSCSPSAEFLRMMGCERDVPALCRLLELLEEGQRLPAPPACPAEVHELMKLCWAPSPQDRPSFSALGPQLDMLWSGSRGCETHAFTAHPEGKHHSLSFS
Experimental: as §1, §2, §3, §4, §5, §6, §7, §8, §9

[4] = test system: DNBS induced rat Crohn's disease model; assay: Therapeutic activity in DNBS induced rat Crohn's disease model; format: in vivo; set-up: rat colon ulcer area: unit not given beside the values; conditions: G3, 10 mg/kg-QD, 7 days, mean±SD
Experimental: Male wistar rats of 4-5 weeks old were adaptively fed for 5 days, and two days before the experiment, randomly divided into 6 groups:
Blank control group: G1 (Normal), 4 normal rats were selected and only given with 30% ethanol, 10 mL/kg.
0.5 mL of 50 mg/mL DNBS (DNBS dissolved in 30% ethanol) was injected into the colon of rats to induce enteritis in rats, for 40 rats in total. Eight of them were selected as model group G2 (Model), and the remaining 32 rats were administrated.
Administration group: the rats with DNBS induced enteritis were administered with ABT494 and the compound of Example 2 respectively and divided into G3-G6 groups, 8 rats/group. G3: ABT494, 10 mg/kg-QD; G4: Example 2, 0.3 mg/kg-BID; G5: Example 2, 1 mg/kg-BID; and G6: Example 2, 3 mg/kg-BID.
The rats were fasted, but fed with water for 48 hours, and a 5% glucose salt solution (10 mL/kg) was used as an energy supplement for experimental animals during the fasting period, once a day. On the day of experimental modeling, the fasting rats were anesthetized with Choutet (25 mg/kg), and then 0.5 mL of 50 mg/mL DNBS was injected from the anus to left colic flexure of the rat (about 8 cm to the anus) to induce rat enteritis. All rats were kept in a […] for 15 min until they were awaken, to prevent the backflow of DNBS. From the day of the experimental modeling, medication was given for 7 days.
After the DNBS modeling, the weights of the animals were measured and recorded every day, the daily activities of the animals were observed, and the abnormalities were recorded. During the experiment, the stool state of the rats was scored every day. On day 7, the rats were anesthetized with isoflurane (3-5%), blood was taken from the orbit, and the serum was separated and stored at −80° C. All animals were euthanized by cervical vertebra dis location after suffocation from excessive CO2 inhalation. The abdomen was cut, the colorectum was take out and longitudinally dissected, and the stool trait in the colorectum was scored. The colorectum was thoroughly rinsed with ice-cold PBS and then the ulcer surface was observed. The length and weight and ulcer area of the colon were recorded, the weight-length ratio (colon weight (g)/length (cm) ratio×100) was calculated, and the overall picture was taken. All intestinal tissue was longitudinally divided into two parts, where one part was fixed with 4% neutral […] and embedded with paraffin, and the rest colon sample was cryopreserved at −80° C.
Excel and Graphapad software were used for statistical analysis, and the results were expressed as mean±SD.

[5] = test system: DSS induced mouse ulcerative colitis model; assay: Efficacy test in DSS induced mouse ulcerative colitis model; format: in vivo; conditions: 100 mg/kg group, once a day, mouse DSS model, DAI range 0-4
Description: Mice of 6-7 weeks old were randomly grouped, 6 mice per group. Purified water was provided ad libitum to the mice in a negative control group, and a 2% solution of dextran sulfate sodium (DSS) was provided ad libitum to the mice in other groups, for 7 consecutive days. During the modeling, medication was given according to the groups, once a day for 7 days (the treatment groups and the mouse numbers can be adjusted according to the specific situation). Within 8-10 days later, the DSS-containing water was replaced with purified water, provided ad libitum to the mice. The normal administration continued for 3 days.
From the first day of administration, the general conditions such as metal state, eating, drinking and activities of the mice were respectively observed every day, the mice were weighed every day, and the animal stools were collected, evaluated for their traits and subjected to the occult blood test. The disease activity index (DAI) of experimental animals within 1-10 days were comprehensively assessed.
Scoring was performed according to the above-mentioned standards. The disease activity index (DAI) of each mouse was obtained by summing the scores of weight loss, stool trait and occult blood condition, to evaluate the disease activity. DAI=(score of weight loss+score of stool trait+score of bloody stool)/3, ranging from 0-4.
The experimental data was processed statistically, and the data are all expressed as mean±SD or mean±SME. The SPSS13.0 software was used for statistical analysis, and the differences among the groups were compared with t test (equal variance) or t′ test (unequal variance).

SMILES	IC50 [1] [nM]	IC50 [2] [nM]	IC50 [3] [nM]	activity in inhibiting the JAK1 kinase compared with Tofacitinib (in words) [1]	colon weight-length ratio ([4]; colon weight (g)/length (cm) ratio×100, model group G2 14.6±5.1)	rat colon ulcer area ([4]; model group G2 1.54±2.00)	DAI score on day 8 [5]
NC(=O)c1cnc2[nH]ccc2c1NN1CCC[C@@H](C(=O)NCC(F)F)C1 [Example 4, (R)-4-(3-(2,2-difluoroethylcarbamoyl)piperidine-1-amino)-1H-7-azaindole-5-carboxamide]	34.3	522	224				
CN(c1ccnc2[nH]ccc12)N1CCCC(C(=O)NCC#N)C1 (stereo not shown) [WO2016116025 WX14, reference compound]	19.7	126	68.9				
NC(=O)c1cnc2[nH]ccc2c1NN1[C@@H]2CC[C@H]1C[C@@H](O)C2 [Example 11, 4-((3-hydroxyl-8-azabicyclo[3.2.1]octan-8-yl)amino)-1H-7-azaindole-5-carboxamide]	11.7	211	15.5				
NC(=O)c1cnc2[nH]ccc2c1NN1CCC[C@H](C(=O)NC2CC2)C1 [Example 6, (S)-4-(3-(cyclopropylcarbamoyl)piperidine-1-amino)-1H-7-azaindole-5-carboxamide]	1.06	44.6	21.7				
NC(=O)c1cnc2[nH]ccc2c1NN1CCC(C(=O)NCC(F)(F)F)C1 (stereo not shown) [Example 9]	0.66	42.5	7.85	higher activity in inhibiting the JAK1 kinase than the positive drug control Tofacitinib			
NC(=O)c1cnc2[nH]ccc2c1NN1C2CCC1COC2 [Example 10, 4-((3-oxa-8-azabicyclo[3.2.1]octan-8-yl)amino)-1H-7-azaindole-5-carboxamide]	51.9						
NC(=O)c1cnc2[nH]ccc2c1NN1CCC(C(=O)NCC(F)(F)F)CC1 [Example 19, 4-(4-(2,2,2-trifluoroethylcarbamoyl)piperidine-1-amino)-1H-7-azaindole-5-carboxamide]	24	353	21.4				
CNC(=O)c1cnc2[nH]ccc2c1NN1CCC[C@H](C(=O)NCC(F)(F)F)C1 [Example 23]	0.64	18.8	6.54	higher activity in inhibiting the JAK1 kinase than the positive drug control Tofacitinib			
CC[C@@H]1CN(C(=O)NCC(F)(F)F)C[C@@H]1c1cnc2cnc3[nH]ccc3n12 [ABT494, reference compound]					13.4±5.2	1.37±1.72	
CN(c1ccnc2[nH]ccc12)N1CCCC(C(=O)NCC(F)(F)F)C1 (stereo not shown) [WO2016116025 WX15, reference compound]	17.3	297	104				
CC1CCC(C(=O)NCC(F)(F)F)CN1Nc1c(C(N)=O)cnc2[nH]ccc12 (stereo not shown) [Example 16, 4-(2-methyl-5-(2,2,2-trifluoroethylcarbamoyl)piperidine-1-amino)-1H-7-azaindole-5-carboxamide]	1.15	41.2	9				
CNC(=O)c1cnc2[nH]ccc2c1NN1CCC[C@H](C(=O)NCC(F)F)C1 [Example 22, (S)-4-((3-((2,2-difluoroethyl)carbamoyl)piperidin-1-yl)amino)-N-methyl-1H-7-pyrrolo[2,3-b]pyridine-5-carboxamide]	35.9	137	103				
NC(=O)c1cnc2[nH]ccc2c1NN1CCC2(CCNC2=O)CC1 [Example 14, 4-(1-keto-2,8-diazaspiro[4.5]decane-8-amino)-1H-7-azaindole-5-carboxamide]	78.3						
Nc1ccc(O)c(C(=O)O)c1 [mesalazine, reference compound]							3.5
CCOC(=O)[C@H]1CCCN(Nc2c(C(N)=O)cnc3[nH]ccc23)C1 [Example 8]	2.03	46.5	8.67				
